Results: patent US10815276B2, “Cell penetrating peptides and methods of making and using thereof” (Entrada Therapeutics, Inc., priority 2014, dated 2020)
Starred links: 1 amine or outer side, 2 acyl side, 3 side chain; linkers in the order of their positions; H or OH if unused. Positions of bridges follow the written chain, without caps; N, C: chain ends. Non-standard residues stand in square brackets, D forms with d. Residues, ends and D or L forms follow the SMILES beside them. Trimesoyl = O=C(c1cc(C(=O)[*:2])cc(C(=O)[*:3])c1)[*:1]; d(pT) = C[C@H](OP(=O)(O)O)[C@@H](N)C(=O)O; 2Nal = N[C@@H](Cc1ccc2ccccc2c1)C(=O)O; Pip = O=C(O)[C@@H]1CCCCN1; Dap = NC[C@H](N)C(=O)O; Sar = CNCC(=O)O

What was measured:
[1] = system: mouse ventricular cardiac myocytes; test: Live-cell confocal microscopy of cardiomyocytes; assay type: cell-based; conditions: 5 μM peptide or 6 μM conjugate, 3 h
Description: FIGS. 35A, 35B, 35C, and 35D display live cell confocal images of mouse ventricular cardiac myocytes after treatment for 3 h with 5 μM c(FΦRRRRQ)-K(FITC) (FIG. 35A) and c(fΦRrRrQ)-K(FITC) (FIG. 35B).
The disclosed cyclic CPPs are very effective in delivering proteins into cardiomyocytes. Fluorescein isothiocyanate (FITC)-labeled cyclic CPPs [c(FΦRRRRQ)-K(FITC)-NH2 and c(fΦRrRrQ)-K(FITC)-NH2] were synthesized and their internalization into mouse ventricular cardiac myocytes was tested by treating the cells with 5 μM FITC-labeled peptide for 3 h. After washing away the extracellular peptides, the internalization of CPPs was examined by fluorescent live-cell confocal microscopy. […] Whether the cyclic CPPs are capable of transporting full-length proteins into cardiac muscle cells was tested. Calmodulin (with an engineered Thr5Cys), a multifunctional calcium-binding messenger protein, was conjugated to c(FΦRRRRQ)-C-NH2 at the Cys residue near N-terminus through a disulfide bond. The disulfide exchange reaction is highly specific, efficient, and reversible. Further, upon entering the cytosol of cells, the disulfide linkage is expected to be reduced to release the native protein (FIG. 35c). The CPP-protein conjugate was chemically labeled on amino-groups with cyanine3, which permits visualization of the internalized calmodulin. […]

Pin1 [2] = target: T1, Pin1 (Homo sapiens, UniProt Q13526, S16A/Y23A); test: Fluorescence anisotropy binding to Pin1
T1 construct: The full-length human S16A/Y23A mutant Pin1 was expressed and purified from E. coli; made in house
T1 sequence (Q13526 whole entry S16A/Y23A): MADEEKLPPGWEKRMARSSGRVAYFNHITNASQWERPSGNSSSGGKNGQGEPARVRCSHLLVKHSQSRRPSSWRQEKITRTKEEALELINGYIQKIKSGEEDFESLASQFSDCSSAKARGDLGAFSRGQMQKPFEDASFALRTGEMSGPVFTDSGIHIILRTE
Description: The gene coding for the catalytic domain of PTP1B (amino acids 1-321) was amplified by the polymerase chain reaction using PTP1B cDNA as template and oligonucleotides 5′-[…]-3′ and 5′-[…]-3′ as primers. […] Expression and purification of the ybbR-tagged PTP1B were carried out as previously described (Ren, L et al. Biochemistry 2011, 50, 2339-2356). […] The reaction mixture was passed through a G-25 fast-desalting column equilibrated in 30 mM HEPES, pH 7.4, 150 mM NaCl to remove any free dye molecules. The full-length human S16A/Y23A mutant Pin1 was expressed and purified from E. coli as previously described (Liu, T et al. J. Med. Chem. 2010, 53, 2494-2501).
FA experiments were carried out by incubating 100 nM FITC-labeled peptide with varying concentrations of protein in 20 mM HEPES (pH 7.4), 150 mM NaCl, 2 mM magnesium acetate, and 0.1% bovine serum albumin (BSA) for 2 h at room temperature. The FA values were measured on a Molecular Devices Spectramax M5 plate reader, with excitation and emission wavelengths at 485 and 525 nm, respectively. Equilibrium dissociation constants (KD) were determined by plotting the FA values as a function of protein concentration and fitting the curve to the following equation:
(§1) [formula] where Y is the FA value at a given protein concentration x, L is the peptide concentration, Qb/Qf is the correction factor for fluorophore-protein interaction, Amax is the maximum FA value when all of the peptides are bound to protein, while Amin is the minimum FA value when all of the peptides are free. FA competition assay was performed by incubating 100 nM FITC-labeled Pin1 inhibitor 5 with 1 μM Pin1, followed by the addition of 0-5 μM unlabeled inhibitor. The FA values were measured similarly on a pate reader. IC50 values were obtained by plotting the FA values against the competitor concentration and curve fitting using the four-parameter dose-response inhibition equation (Prism 6, GraphPad).

HeLa cells [3] = test: Cellular uptake by flow cytometry; assay type: cell-based, human; conditions: 5 μM FITC-labeled peptide, 2 h
Description: The cellular uptake efficiency of peptide 37, peptide 1, and a previously reported membrane-impermeable monocyclic Pin1 inhibitor (Table 18, peptide 46) was assessed by incubating HeLa cells with the FITC-labeled peptides (5 μM) for 2 h and quantifying the total intracellular fluorescence by flow cytometry analysis. […] By contrast, cells treated with peptides 1 and 37 gave MFI values of 2562 and 8792, respectively. Thus, peptide 37 is internalized by HeLa cells ˜4-fold more efficiently than peptide 1. Presumably, the negative charged phosphate group of peptide 1 interacted electrostatically with the positively charged CPP motif and reduced the cellular uptake efficiency of the latter.

Pin1 [4] = target: T1, Pin1; test: FA competition with FITC-labeled inhibitor 5; assay type: binding; conditions: 0.1 μM labeled inhibitor 5, 1 μM Pin1
Description: FIGS. 32A and 32B display the competition for binding to Pin1 by inhibitors 5 and 7. Each reaction contained 0.1 μM FITC-labeled inhibitor 5, 1 μM Pin1, and 0-5 μM unlabeled inhibitor 5 […] or inhibitor 7 (FIG. 32B) and the FA value was measured and plotted against the competitor concentration.
as §1

HeLa cells [5] = conditions: read-out: IC50 of HeLa cell growth; MTT
Description: The effect of peptide 37 on the growth of HeLa cells was examined by using the MTT cell viability assay.

HeLa cells [6] = test: Western blot of PML protein level; assay type: cell-based, human; conditions: 5 μM
Description: FIGS. 38A, 38B, 38C, and 38D display cellular activity of peptide 37. (FIG. 38A) Cellular uptake of peptides 1, 37, and 46 (5 μM) by HeLa cells as analyzed by flow cytometry. MFI, mean fluorescence intensity; none, untreated cells (no peptide). (FIG. 38B) Anti-proliferative effect of peptides 37, 46, and 47 on HeLa cells as measured by MTT assay. (FIG. 38C) Western blots showing the effect of peptides 1, 37 and 47 on the protein level of PML in HeLa cells. β-Actin was used as loading control. (FIG. 38D) Quantification of western blot results from (FIG. 38C). Data reported were after background subtraction and represent the mean±SD from 3 independent experiments.
Finally, to ascertain that Pin1 is the molecular target of peptide 37 in vivo, the intracellular protein level of a well-established Pin1 substrate, […] (PML), was examined by western blot analysis. Pin1 negatively regulates the PML level in a phosphorylation-dependent manner and inhibition of Pin1 activity is expected to stabilize PML and increase its intracellular level. […] The effect was already significant at 0.2 μM inhibitor (1.8-fold increase in the PML level) and plateaued at ˜1 μM (3.3-fold increase). Again, bicyclic peptide 47 had no effect under the same conditions, while peptide 1 (the positive control, at 5 μM) increased the PML level by 3.1-fold.

HeLa cells [7] = test: MTT proliferation assay with Pin1 inhibitors; assay type: cell-based, human; conditions: 3-day treatment at 20 μM
Description: HeLa cells (100 μL/each well, 5×10^4 cells/mL) were seeded in a 96-well culture plate and allowed to grow overnight in DMEM supplemented with 10% FBS. […] After that, 10 μL of a MTT stock solution (5 mg/mL) was added into each well. The plate was incubated at 37° C. for 4 h and 100 μL of SDS-HCl solubilizing solution was added into each well, followed by thorough mixing. The plate was incubated at 37° C. overnight and the absorbance of the formazan product was measured at 570 nm on a Molecular Devices Spectramax M5 plate reader. Each experiment was performed in triplicates and the cells untreated with peptide were used as control.

Row | Compound | Internalization into cardiac muscle cells (confocal) [1] | Improvement of inhibitor potency vs peptide 6 (Pin1 [2]) [fold] | Kd (Pin1 [2]; FITC-labeled peptide, FA analysis) [nM] | Mean fluorescence intensity (MFI) (HeLa cells [3]) | Competition with FITC-labeled inhibitor 5 for binding to Pin1 (Pin1 [4]) | IC50 (HeLa cells [5]) [nM] | Increase in the PML level (HeLa cells [6]) [fold] | Inhibition of cell growth (HeLa cells [7]) [%]
1 | c(fΦRrRrQ)-K(FITC)-NH2 | efficient internalization | – | – | – | – | – | – | –
2 | C[C@@H]1NC(=O)[C@H](CCCNC(=N)N)NC(=O)[C@H](Cc2ccc3ccccc3c2)NC(=O)[C@@H]2CCCCN2C(=O)[C@@H]([C@H](C)OP(=O)(O)O)NC(=O)CN(C)C(=O)[C@@H](C)NC(=O)c2cc3cc(c2)C(=O)NC[C@H](NC(=O)[C@@H](C)NC1=O)C(=O)N[C@@H](Cc1ccccc1)C(=O)N[C@@H](Cc1ccc2ccccc2c1)C(=O)N[C@@H](CCCNC(=N)N)C(=O)N[C@@H](CCCNC(=N)N)C(=O)N[C@@H](CCCNC(=N)N)C(=O)N[C@@H](CCCNC(=N)N)C(=O)N[C@H](C(=O)N[C@@H](CCCCN)C(N)=O)CNC3=O [Peptide 1, bicyclo[Tm-(D-Ala-Sar-D-pThr-Pip-Nal-Arg-Ala-D-Ala)-Dap-(Phe-Nal-Arg-Arg-Arg-Arg-Dap)]-Lys] ([dA][Sar][d(pT)][Pip][2Nal]RA[dA][Dap]F[2Nal]RRRR[Dap]K-NH2; linker N-9-16 via Trimesoyl) | – | ~2 | 72 | 2562 | competed | 1800 | 3.1 | 45
